Here are results for eight molecules from patent publication EP1070068B2, “GRANULATIMIDE DERIVATIVES FOR USE IN CANCER TREATMENT” (THE UNIVERSITY OF BRITISH COLUMBIA, priority 1998, dated 1999).

The subject of data set [1] is MCF-7 mp53 cells. Description: G2 checkpoint inhibition assay (TG-3 ELISA of mitotic cells after γ-irradiation, with nocodazole). The format is cell-based. As to conditions: concentration of 0.1-30 µM.
Data set [2] relates to MCF-7 mp53 cells. The description is as above. The format is cell-based. Particulars: for IC50: Homo sapiens. How it is done:
G2 Checkpoint Inhibitor Assay: The G2 checkpoint inhibitor assay described herein involves treating cells, e. g. cells associated with a hyperproliferative disorder, including cancer cells, with a DNA damaging agent under conditions whereby arrest of the cells at G2 will be induced. A sample to be tested for G2 checkpoint inhibition activity and an agent which arrests cells in mitosis are applied to the cells, following which it is determined whether the G2 checkpoint is overcome and the cells enter mitosis. Release of the cells from arrest at G2 or prevention of arrest at G2, such that the cells proceed to mitosis, is the indicator of G2 checkpoint inhibition activity.
MCF-7 mp53 cells (mutant for p53) were cultured as monolayers in DMEM supplemented with 10% fetal bovine serum, 2 mM L-glutamine, 50 units/ml penicillin, 50 µg/ml streptomycin, 1 mM sodium pyruvate, MEM non-essential amino acids, 1 µg/ml bovine insulin, 1 µg/ml hydrocortisone, 1 ng/ml human epidermal growth factor, and 1 ng/ml β-estradiol at 37°C in humidified 5% CO2. The cells were seeded at 10,000 cells per well of 96-well polystyrene tissue culture plates (Falcon) in 100 µl medium. The cells were allowed to grow for 24 hours and then were irradiated with 6.5 Gy using a ^60Co source (Gammacell 200™, Atomic Energy Commission of Canada) delivering γ-rays at a dose rate of 1.4 Gy/min.
Extracts from marine organisms at about 10µg/ml (from 1000-fold stocks in DMSO) and 100 ng/ml nocodazole (Sigma, from a 1000-fold stock in DMSO) were added 16 hours after irradiation and the cells were incubated for a further 8 hours.
After drug treatment, the cell culture medium was removed and the cells were lysed by adding 100 µl of ice-cold lysis buffer (1 mM EGTA pH 7.4, 0.2 mM PMSF) and pipeting up-and-down 10 times. The cell lysates were transferred to 96-well PolySorp™ plates (Nunc) and dried completely by blowing warm air at about 37°C with a hair dryer positioned about 3 feet above plates. […] This was removed and replaced with 100 µl antibody buffer containing 0.1-0.15 µg/ml TG-3 monoclonal antibody and horseradish peroxidase-labelled goat anti-mouse IgM (Southern Biotechnology Associates) at a dilution of 1/500.
After overnight incubation at 4°C, the antibody solution was removed and the wells were rinsed 3 times with 200 µl 10 mM Tris HCl pH 7.4, 0.02% Tween 20™.

A further data set addresses CDK1 (Homo sapiens, UniProt P06493). The experiment in a line: Protein kinase inhibition assay (γ-32P ATP). The format is biochemical. As to conditions: room temperature, 15 minutes. As to the method:
(§1) 100% DMSO was used as a negative control.
(§2) Kinase reactions are performed at room temperature. The reaction mixture contains diluted test compound, the protein kinase, substrate and γ-^32P ATP. The mixture is incubated for 15 minutes, and the reaction mix spotted, and counted.

The target of the next data set is GSK3b (Homo sapiens, UniProt P49841). Description: Protein kinase inhibition assay (γ-32P ATP, peptide substrate). The data set is classed as biochemical. Particulars: room temperature, 15 minutes. How it is done: (§3) The GSK3β peptide substrate used was […] (PO4H2)EDEE-amide. The ILK1 substrate is […]-amide.
Chain of GSK3b (P49841 whole entry, species assumed): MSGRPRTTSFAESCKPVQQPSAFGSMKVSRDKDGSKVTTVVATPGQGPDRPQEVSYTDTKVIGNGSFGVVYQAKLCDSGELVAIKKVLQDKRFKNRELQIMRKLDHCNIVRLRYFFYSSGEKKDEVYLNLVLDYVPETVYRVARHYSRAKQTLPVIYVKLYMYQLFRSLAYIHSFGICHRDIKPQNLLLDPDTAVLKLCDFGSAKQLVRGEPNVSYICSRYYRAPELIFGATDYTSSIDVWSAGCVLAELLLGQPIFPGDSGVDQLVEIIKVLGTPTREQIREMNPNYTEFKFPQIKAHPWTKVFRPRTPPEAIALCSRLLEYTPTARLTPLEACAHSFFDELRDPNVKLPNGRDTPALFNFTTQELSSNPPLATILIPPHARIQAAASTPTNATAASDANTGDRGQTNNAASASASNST
as §1, §2

A further data set deals with T1, ILK1 (Homo sapiens, UniProt Q13418).
T1 sequence (Q13418 1-452): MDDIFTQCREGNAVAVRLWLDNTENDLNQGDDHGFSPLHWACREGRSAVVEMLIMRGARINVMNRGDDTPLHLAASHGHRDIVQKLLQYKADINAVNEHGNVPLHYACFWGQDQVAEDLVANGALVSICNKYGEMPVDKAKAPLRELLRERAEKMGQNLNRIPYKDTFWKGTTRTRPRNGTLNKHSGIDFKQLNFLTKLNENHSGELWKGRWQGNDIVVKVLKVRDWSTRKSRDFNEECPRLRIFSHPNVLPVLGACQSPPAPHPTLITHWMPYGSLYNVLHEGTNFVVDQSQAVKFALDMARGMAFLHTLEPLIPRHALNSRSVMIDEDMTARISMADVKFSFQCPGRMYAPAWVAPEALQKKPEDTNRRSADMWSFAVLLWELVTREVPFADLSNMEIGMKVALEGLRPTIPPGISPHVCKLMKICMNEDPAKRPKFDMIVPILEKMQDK
The data set is described as above. The format is biochemical. As to conditions: room temperature, 15 minutes. How it is done:
as §3, §1, §2

The nature of data set [3]: Solubility in organic solvents. The format is physicochemical.
The test system of another data set is MCF-7 cells. Description: Cell survival, soluble tetrazolium salt assay with γ-irradiation, p53+ cells. As to conditions: MCF-7 cells (Figure 1C). The format is cell-based.
Data set [4] has as its system MCF-7 mp53 cells.
Another data set in a line: in vitro. Particulars: human.
The next data set concerns p53-MCF-7 cells. As to conditions: cited from earlier work.
In data set [5] the test system is p53- A549 human lung adenocarcinoma cells. As to conditions: cited from earlier work.
Setting [6] is: MCF7, Table 2, read-out: IC50 G2 checkpoint.
The mark [7] stands for this setting: MCF7, light or radiation study, MCF-7 mp53 cells irradiated with 6.5 Gy, read-out: half-maximal G2 checkpoint inhibition (IC50).

Like-named read-outs stand apart in the source and are kept apart here. Some results are limits rather than exact numbers.

Chain of CDK1 (P06493 whole entry, species assumed): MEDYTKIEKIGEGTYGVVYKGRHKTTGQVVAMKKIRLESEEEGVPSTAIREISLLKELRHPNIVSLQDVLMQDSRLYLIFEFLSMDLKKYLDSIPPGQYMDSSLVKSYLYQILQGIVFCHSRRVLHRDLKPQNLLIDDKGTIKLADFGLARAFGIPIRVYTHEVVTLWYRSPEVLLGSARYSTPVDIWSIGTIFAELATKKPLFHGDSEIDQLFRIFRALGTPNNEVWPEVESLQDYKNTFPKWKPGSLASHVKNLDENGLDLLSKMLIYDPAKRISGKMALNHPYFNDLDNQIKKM
Chain of CDK1 (P14635 whole entry partner, species assumed): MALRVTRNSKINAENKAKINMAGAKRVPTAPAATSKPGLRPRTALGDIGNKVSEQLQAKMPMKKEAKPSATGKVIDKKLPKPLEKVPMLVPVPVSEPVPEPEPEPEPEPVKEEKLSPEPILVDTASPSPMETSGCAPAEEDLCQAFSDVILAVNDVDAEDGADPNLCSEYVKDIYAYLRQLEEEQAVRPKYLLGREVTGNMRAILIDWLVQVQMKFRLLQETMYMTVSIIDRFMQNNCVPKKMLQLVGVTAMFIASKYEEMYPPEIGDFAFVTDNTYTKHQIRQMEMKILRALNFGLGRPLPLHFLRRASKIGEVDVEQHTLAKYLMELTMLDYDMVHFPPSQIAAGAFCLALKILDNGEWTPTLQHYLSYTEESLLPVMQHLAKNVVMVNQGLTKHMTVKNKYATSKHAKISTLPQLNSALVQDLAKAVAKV

`O=C1NC(=O)C(c2c[nH]c3ccccc23)=C1c1cnc[nH]1` [Didemnimide A]: the “G2 checkpoint inhibition activity” value in the data set on MCF-7 mp53 cells [1] is recorded as “no activity”.
Regarding `O=C1NC(=O)c2c1c1[nH]cnc1c1[nH]c3ccccc3c21` [Granulatimide], the IC50 in the data set on MCF-7 mp53 cells [2] (MCF7, Figure 2, read-out: G2 checkpoint inhibitor IC50) was 1.3 µM; with MCF-7 mp53 cells [2] (setting [6]), 1.3 µM; against CDK1, 2 µM; against GSK3b, 2 µM; against ILK1, more than 50 µM. In addition, the solubility entry in data set [3] (DMF or DMSO) is listed as “soluble”; in data set [3] (most common organic solvents including ethanol and methanol), “very insoluble”.
With `O=C1NC(=O)c2c1c1c3ccccc3[nH]c1n1cncc21` [Isogranulatimide], the IC50 was 1.8 ± 0.2 µM in the data set with MCF-7 mp53 cells [2] (setting [7]), 1.8 µM in the data set with MCF-7 mp53 cells [2] (setting [6]), 0.5 µM against GSK3b and more than 50 µM on ILK1. The “synergy with irradiation in killing p53+ cells” value with MCF-7 cells is recorded as “does not kill p53+ cells synergistically”. For the same molecule, the “reduction of the IC50 for cytotoxicity when cells were irradiated” value in the data set with MCF-7 mp53 cells [4] was found to be 5 fold. For the same molecule, the “synergy with γ-irradiation in killing p53- cells” value in the data set with MCF-7 mp53 cells [4] (2, 4 or 6 Gy, 16 hours for isogranulatimide) is “acted synergistically”. For the same molecule, inhibition in the data set “in vitro” was half-maximal at 40 ± 4 µM (IC50 at 16 h).
On to `CC(=O)CCCCn1c(=O)c2c(ncn2C)n(C)c1=O` [Pentoxifylline], for which, in the data set on p53-MCF-7 cells, the “enhancement of cisplatin induced killing” value is given as 30 fold. The “enhancement of radiation induced killing” value in data set [5] is listed as 5 fold.
Turning to `Cn1c(=O)c2c(ncn2C)n(C)c1=O` [caffeine, reference compound], the IC50 with MCF-7 mp53 cells [2] (MCF7, comparison compound, read-out: IC50 for G2 checkpoint inhibition) was found to be 1000 µM. The “absorbance readings at 405 nm” value in the data set with MCF-7 mp53 cells [2] (positive control, 2 mM) is “about 1.0”.
As to `O=C1NC(=O)c2c1c1c3ccccc3[nH]c1c1nccn21` [compound 40], the IC50 with MCF-7 mp53 cells [2] (setting [7]) was more than 100 µM; with MCF-7 mp53 cells [2] (setting [6]), more than 100 µM; at CDK1, more than 50 µM; on GSK3b it was 25 µM; against ILK1, more than 50 µM.
For `O=C1NC(=O)c2c1c1c3ccccc3[nH]c1c1cncn21` [compound 50], the IC50 in the data set with MCF-7 mp53 cells [2] (setting [7]) stood at 1 µM; in the data set on MCF-7 mp53 cells [2] (setting [6]), 1 µM; on CDK1, 0.5 µM; against GSK3b, 0.1 µM; against ILK1 it was 15 µM.
Regarding `O=C1NC(=O)c2c1c1c3ccccc3[nH]c1n1ccnc21` [compound 60], the IC50 in the data set with MCF-7 mp53 cells [2] (setting [7]) was 2 µM; in the data set on MCF-7 mp53 cells [2] (setting [6]) it was 6 µM; against CDK1, 17 µM; on GSK3b it was 5 µM; against ILK1, more than 50 µM.
